Reference: publication PMC7313537 (PLoS ONE, 2020)

Assays:
Experiment in all cases: Broader kinase panel (PerkinElmer)
Type in all cases: biochemical
AKT2 = biological target: T1, AKT2 (Homo sapiens, UniProt P31751); conditions: 100 nM; read-out: Average Percent Inhibition
T1 construct: purchased In-house HTRF panel (56 kinases) and PerkinElmer (161-kinase panel)
Description: (§1) […]. […] […].

[1] = biological target: T2, AMPK-alpha2/beta1/gamma 1 (Homo sapiens, UniProt P54646); conditions: 100 nM; read-out: Average Percent Inhibition
T2 construct: purchased In-house HTRF panel (56 kinases) and PerkinElmer (161-kinase panel)
Description: as §1

AMPK = conditions: 100 nM
Description: as §1

Abl (Q252H) = biological target: T3, Abl (Q252H) (Homo sapiens, UniProt P00519, Q252H); conditions: 100 nM; read-out: Average Percent Inhibition
T3 construct: purchased In-house HTRF panel (56 kinases) and PerkinElmer (161-kinase panel)
Description: as §1

AurB = biological target: T4, AurB (Homo sapiens, UniProt Q96GD4); conditions: 100 nM; read-out: Average Percent Inhibition
T4 construct: purchased In-house HTRF panel (56 kinases) and PerkinElmer (161-kinase panel)
Description: as §1

AurC = biological target: T5, AurC (Homo sapiens, UniProt Q9UQB9); conditions: 100 nM; read-out: Average Percent Inhibition
T5 construct: purchased In-house HTRF panel (56 kinases) and PerkinElmer (161-kinase panel)
Description: as §1

BMX = biological target: T6, BMX (Homo sapiens, UniProt P51813); conditions: 100 nM; read-out: Average Percent Inhibition
T6 construct: purchased In-house HTRF panel (56 kinases) and PerkinElmer (161-kinase panel)
Description: as §1

CK1-epsilon = biological target: T7, CK1-epsilon (Homo sapiens, UniProt P49674); conditions: 100 nM; read-out: Average Percent Inhibition
T7 construct: purchased In-house HTRF panel (56 kinases) and PerkinElmer (161-kinase panel)
Description: as §1

Ca MKII_beta = biological target: T8, Ca MKII_beta (Homo sapiens, UniProt Q13554); conditions: 100 nM; read-out: Average Percent Inhibition
T8 construct: purchased In-house HTRF panel (56 kinases) and PerkinElmer (161-kinase panel)
Description: as §1

DAPK1 = biological target: T9, DAPK1 (Homo sapiens, UniProt P53355); conditions: 100 nM; read-out: Average Percent Inhibition
T9 construct: purchased In-house HTRF panel (56 kinases) and PerkinElmer (161-kinase panel)
Description: as §1

DCAMKL2 = biological target: T10, DCAMKL2 (Homo sapiens, UniProt Q8N568); conditions: 100 nM; read-out: Average Percent Inhibition
T10 construct: purchased In-house HTRF panel (56 kinases) and PerkinElmer (161-kinase panel)
Description: as §1

DYRK3 = biological target: T11, DYRK3 (Homo sapiens, UniProt O43781); conditions: 100 nM; read-out: Average Percent Inhibition
T11 construct: purchased In-house HTRF panel (56 kinases) and PerkinElmer (161-kinase panel)
Description: as §1

EGFR(T790M) = biological target: T12, EGFR(T790M) (Homo sapiens, UniProt P00533, T790M); conditions: 100 nM; read-out: Average Percent Inhibition
T12 construct: purchased In-house HTRF panel (56 kinases) and PerkinElmer (161-kinase panel)
Description: as §1

EPHA2 = EPHA2 (Homo sapiens, UniProt P29317); conditions: 100 nM; read-out: Average Percent Inhibition
Description: as §1

EPHA3 = biological target: T13, EPHA3 (Homo sapiens, UniProt P29320); conditions: 100 nM; read-out: Average Percent Inhibition
T13 construct: purchased In-house HTRF panel (56 kinases) and PerkinElmer (161-kinase panel)
Description: as §1

FLT1 = biological target: T14, FLT1 (Homo sapiens, UniProt P17948); conditions: 100 nM; read-out: Average Percent Inhibition
T14 construct: purchased In-house HTRF panel (56 kinases) and PerkinElmer (161-kinase panel)
Description: as §1

FLT4 = biological target: T15, FLT4 (Homo sapiens, UniProt P35916); conditions: 100 nM; read-out: Average Percent Inhibition
T15 construct: purchased In-house HTRF panel (56 kinases) and PerkinElmer (161-kinase panel)
Description: as §1

GSK3-alpha = biological target: T16, GSK3-alpha (Homo sapiens, UniProt P49840); conditions: 100 nM; read-out: Average Percent Inhibition
T16 construct: purchased In-house HTRF panel (56 kinases) and PerkinElmer (161-kinase panel)
Description: as §1

HGK = biological target: T17, HGK (Homo sapiens, UniProt O95819); conditions: 100 nM; read-out: Average Percent Inhibition
T17 construct: purchased In-house HTRF panel (56 kinases) and PerkinElmer (161-kinase panel)
Description: as §1

HIPK1 = biological target: T18, HIPK1 (Homo sapiens, UniProt Q86Z02); conditions: 100 nM; read-out: Average Percent Inhibition
T18 construct: purchased In-house HTRF panel (56 kinases) and PerkinElmer (161-kinase panel)
Description: as §1

KIT[T670I] = biological target: T19, KIT[T670I] (Homo sapiens, UniProt P10721, T670I); conditions: 100 nM; read-out: Average Percent Inhibition
T19 construct: purchased In-house HTRF panel (56 kinases) and PerkinElmer (161-kinase panel)
Description: as §1

LYN = biological target: T20, LYN (Homo sapiens, UniProt P07948); conditions: 100 nM; read-out: Average Percent Inhibition
T20 construct: purchased In-house HTRF panel (56 kinases) and PerkinElmer (161-kinase panel)
Description: as §1

MAPKAPK3 = biological target: T21, MAPKAPK3 (Homo sapiens, UniProt Q16644); conditions: 100 nM; read-out: Average Percent Inhibition
T21 construct: purchased In-house HTRF panel (56 kinases) and PerkinElmer (161-kinase panel)
Description: as §1

MARK4 = biological target: T22, MARK4 (Homo sapiens, UniProt Q96L34); conditions: 100 nM; read-out: Average Percent Inhibition
T22 construct: purchased In-house HTRF panel (56 kinases) and PerkinElmer (161-kinase panel)
Description: as §1

MET = biological target: T23, MET (Homo sapiens, UniProt P08581); conditions: 100 nM; read-out: Average Percent Inhibition
T23 construct: purchased In-house HTRF panel (56 kinases) and PerkinElmer (161-kinase panel)
Description: as §1

MNK1 (MKNK1) = biological target: T24, MNK1 (MKNK1) (Homo sapiens, UniProt Q9BUB5); conditions: 100 nM; read-out: Average Percent Inhibition
T24 construct: purchased In-house HTRF panel (56 kinases) and PerkinElmer (161-kinase panel)
Description: as §1

MSK1 = biological target: T25, MSK1 (Homo sapiens, UniProt O75582); conditions: 100 nM; read-out: Average Percent Inhibition
T25 construct: purchased In-house HTRF panel (56 kinases) and PerkinElmer (161-kinase panel)
Description: as §1

MST1 = biological target: T26, MST1 (Homo sapiens, UniProt Q13043); conditions: 100 nM; read-out: Average Percent Inhibition
T26 construct: purchased In-house HTRF panel (56 kinases) and PerkinElmer (161-kinase panel)
Description: as §1

NuaK1 = biological target: T27, NuaK1 (Homo sapiens, UniProt O60285); conditions: 100 nM; read-out: Average Percent Inhibition
T27 construct: purchased In-house HTRF panel (56 kinases) and PerkinElmer (161-kinase panel)
Description: as §1

PAK3 = biological target: T28, PAK3 (Homo sapiens, UniProt O75914); conditions: 100 nM; read-out: Average Percent Inhibition
T28 construct: purchased In-house HTRF panel (56 kinases) and PerkinElmer (161-kinase panel)
Description: as §1

PIM2 = biological target: T29, PIM2 (Homo sapiens, UniProt Q9P1W9); conditions: 100 nM; read-out: Average Percent Inhibition
T29 construct: purchased In-house HTRF panel (56 kinases) and PerkinElmer (161-kinase panel)
Description: as §1

PKC-delta = biological target: T30, PKC-delta (Homo sapiens, UniProt Q05655); conditions: 100 nM; read-out: Average Percent Inhibition
T30 construct: purchased In-house HTRF panel (56 kinases) and PerkinElmer (161-kinase panel)
Description: as §1

PKGa = biological target: T31, PKGa (Homo sapiens, UniProt Q13976); conditions: 100 nM; read-out: Average Percent Inhibition
T31 construct: purchased In-house HTRF panel (56 kinases) and PerkinElmer (161-kinase panel)
Description: as §1

PRAK = biological target: T32, PRAK (Homo sapiens, UniProt Q8IW41); conditions: 100 nM; read-out: Average Percent Inhibition
T32 construct: purchased In-house HTRF panel (56 kinases) and PerkinElmer (161-kinase panel)
Description: as §1

PRKX = biological target: T33, PRKX (Homo sapiens, UniProt P51817); conditions: 100 nM; read-out: Average Percent Inhibition
T33 construct: purchased In-house HTRF panel (56 kinases) and PerkinElmer (161-kinase panel)
Description: as §1

ROCK1 = ROCK1 (Homo sapiens, UniProt Q13464); conditions: 100 nM; read-out: Average Percent Inhibition
Description: as §1

ROCK2 = biological target: T34, ROCK2 (Homo sapiens, UniProt O75116); conditions: 100 nM; read-out: Average Percent Inhibition
T34 construct: purchased In-house HTRF panel (56 kinases) and PerkinElmer (161-kinase panel)
Description: as §1

Ret (V804L) = biological target: T35, Ret (V804L) (Homo sapiens, UniProt P07949, V804L); conditions: 100 nM; read-out: Average Percent Inhibition
T35 construct: purchased In-house HTRF panel (56 kinases) and PerkinElmer (161-kinase panel)
Description: as §1

SGK2 = biological target: T36, SGK2 (Homo sapiens, UniProt Q9HBY8); conditions: 100 nM; read-out: Average Percent Inhibition
T36 construct: purchased In-house HTRF panel (56 kinases) and PerkinElmer (161-kinase panel)
Description: as §1

SGK3 = SGK3 (Homo sapiens, UniProt Q96BR1); conditions: 100 nM; read-out: Average Percent Inhibition
Description: as §1

SRM (SRMS) = biological target: T37, SRM (SRMS) (Homo sapiens, UniProt Q9H3Y6); conditions: 100 nM; read-out: Average Percent Inhibition
T37 construct: purchased In-house HTRF panel (56 kinases) and PerkinElmer (161-kinase panel)
Description: as §1

p38-delta = biological target: T38, p38-delta (Homo sapiens, UniProt O15264); conditions: 100 nM; read-out: Average Percent Inhibition
T38 construct: purchased In-house HTRF panel (56 kinases) and PerkinElmer (161-kinase panel)
Description: as §1

p70S6K = biological target: T39, p70S6K (Homo sapiens, UniProt P23443); conditions: 100 nM; read-out: Average Percent Inhibition
T39 construct: purchased In-house HTRF panel (56 kinases) and PerkinElmer (161-kinase panel)
Description: as §1

T37 sequence (Q9H3Y6 whole entry): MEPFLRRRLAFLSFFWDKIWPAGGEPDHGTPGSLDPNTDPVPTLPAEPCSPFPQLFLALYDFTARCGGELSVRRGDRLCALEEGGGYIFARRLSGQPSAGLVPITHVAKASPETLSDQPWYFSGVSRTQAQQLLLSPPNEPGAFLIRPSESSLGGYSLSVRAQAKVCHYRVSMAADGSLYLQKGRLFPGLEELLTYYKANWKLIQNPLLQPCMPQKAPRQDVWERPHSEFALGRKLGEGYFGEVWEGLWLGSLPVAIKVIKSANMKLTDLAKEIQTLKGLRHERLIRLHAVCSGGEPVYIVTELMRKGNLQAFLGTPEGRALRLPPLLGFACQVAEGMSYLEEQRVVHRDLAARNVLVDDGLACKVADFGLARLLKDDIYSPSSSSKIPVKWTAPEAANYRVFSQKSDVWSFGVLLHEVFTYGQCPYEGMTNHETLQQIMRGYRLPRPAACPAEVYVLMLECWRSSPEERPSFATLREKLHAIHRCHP
T22 sequence (Q96L34 whole entry): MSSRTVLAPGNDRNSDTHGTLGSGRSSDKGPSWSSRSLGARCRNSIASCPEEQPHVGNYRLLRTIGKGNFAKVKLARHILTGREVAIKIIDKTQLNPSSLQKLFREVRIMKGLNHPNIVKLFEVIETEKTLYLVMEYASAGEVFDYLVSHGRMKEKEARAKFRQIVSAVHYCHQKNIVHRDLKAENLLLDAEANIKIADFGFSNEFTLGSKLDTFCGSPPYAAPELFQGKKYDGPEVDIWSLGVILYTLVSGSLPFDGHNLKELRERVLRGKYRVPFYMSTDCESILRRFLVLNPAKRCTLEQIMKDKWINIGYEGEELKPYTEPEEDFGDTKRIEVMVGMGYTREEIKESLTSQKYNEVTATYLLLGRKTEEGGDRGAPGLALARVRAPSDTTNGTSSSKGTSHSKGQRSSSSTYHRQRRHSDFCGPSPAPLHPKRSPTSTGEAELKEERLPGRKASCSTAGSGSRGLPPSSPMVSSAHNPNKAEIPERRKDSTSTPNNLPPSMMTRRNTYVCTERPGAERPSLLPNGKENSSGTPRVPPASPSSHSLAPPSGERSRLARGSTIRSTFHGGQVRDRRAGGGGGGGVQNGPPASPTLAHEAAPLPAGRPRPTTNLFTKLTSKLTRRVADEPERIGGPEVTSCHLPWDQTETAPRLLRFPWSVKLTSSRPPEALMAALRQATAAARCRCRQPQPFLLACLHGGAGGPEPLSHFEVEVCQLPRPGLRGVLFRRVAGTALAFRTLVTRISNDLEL
T15 sequence (P35916 25-1363): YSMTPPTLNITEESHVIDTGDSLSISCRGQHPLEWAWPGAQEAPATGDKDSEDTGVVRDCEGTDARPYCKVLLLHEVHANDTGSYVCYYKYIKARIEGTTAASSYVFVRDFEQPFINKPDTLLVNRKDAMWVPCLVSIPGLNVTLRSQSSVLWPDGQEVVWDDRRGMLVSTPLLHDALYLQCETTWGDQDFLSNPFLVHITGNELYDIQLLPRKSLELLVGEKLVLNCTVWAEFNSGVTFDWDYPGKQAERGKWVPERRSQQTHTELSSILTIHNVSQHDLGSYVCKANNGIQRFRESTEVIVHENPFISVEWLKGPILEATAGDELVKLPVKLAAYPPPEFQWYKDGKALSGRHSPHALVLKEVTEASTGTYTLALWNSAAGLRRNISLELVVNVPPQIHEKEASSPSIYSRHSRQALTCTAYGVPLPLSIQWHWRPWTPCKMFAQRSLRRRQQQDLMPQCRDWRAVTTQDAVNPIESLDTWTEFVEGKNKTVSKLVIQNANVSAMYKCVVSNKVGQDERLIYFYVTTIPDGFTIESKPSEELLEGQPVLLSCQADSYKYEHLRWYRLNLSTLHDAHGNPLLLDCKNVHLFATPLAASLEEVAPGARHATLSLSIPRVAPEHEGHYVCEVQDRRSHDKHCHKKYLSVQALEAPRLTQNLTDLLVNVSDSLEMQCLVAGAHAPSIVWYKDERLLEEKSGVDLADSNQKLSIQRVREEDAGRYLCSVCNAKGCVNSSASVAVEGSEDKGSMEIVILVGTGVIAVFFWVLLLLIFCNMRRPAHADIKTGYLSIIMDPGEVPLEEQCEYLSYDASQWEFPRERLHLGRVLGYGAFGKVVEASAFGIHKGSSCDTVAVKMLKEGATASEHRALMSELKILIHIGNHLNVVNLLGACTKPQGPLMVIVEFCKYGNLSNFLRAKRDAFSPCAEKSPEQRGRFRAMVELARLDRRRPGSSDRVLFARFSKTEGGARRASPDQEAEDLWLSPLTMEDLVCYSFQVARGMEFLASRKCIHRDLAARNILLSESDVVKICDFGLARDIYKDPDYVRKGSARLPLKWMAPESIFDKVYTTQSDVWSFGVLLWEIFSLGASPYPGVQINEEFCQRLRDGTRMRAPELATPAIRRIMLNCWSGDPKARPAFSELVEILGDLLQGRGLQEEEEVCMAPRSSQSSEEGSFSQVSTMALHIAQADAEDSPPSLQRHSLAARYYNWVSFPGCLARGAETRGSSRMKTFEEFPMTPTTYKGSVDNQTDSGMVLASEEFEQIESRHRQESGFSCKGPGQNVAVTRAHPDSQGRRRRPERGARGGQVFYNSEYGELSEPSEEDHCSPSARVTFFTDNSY
Chain of EPHA2 (P29317 24-976, species assumed): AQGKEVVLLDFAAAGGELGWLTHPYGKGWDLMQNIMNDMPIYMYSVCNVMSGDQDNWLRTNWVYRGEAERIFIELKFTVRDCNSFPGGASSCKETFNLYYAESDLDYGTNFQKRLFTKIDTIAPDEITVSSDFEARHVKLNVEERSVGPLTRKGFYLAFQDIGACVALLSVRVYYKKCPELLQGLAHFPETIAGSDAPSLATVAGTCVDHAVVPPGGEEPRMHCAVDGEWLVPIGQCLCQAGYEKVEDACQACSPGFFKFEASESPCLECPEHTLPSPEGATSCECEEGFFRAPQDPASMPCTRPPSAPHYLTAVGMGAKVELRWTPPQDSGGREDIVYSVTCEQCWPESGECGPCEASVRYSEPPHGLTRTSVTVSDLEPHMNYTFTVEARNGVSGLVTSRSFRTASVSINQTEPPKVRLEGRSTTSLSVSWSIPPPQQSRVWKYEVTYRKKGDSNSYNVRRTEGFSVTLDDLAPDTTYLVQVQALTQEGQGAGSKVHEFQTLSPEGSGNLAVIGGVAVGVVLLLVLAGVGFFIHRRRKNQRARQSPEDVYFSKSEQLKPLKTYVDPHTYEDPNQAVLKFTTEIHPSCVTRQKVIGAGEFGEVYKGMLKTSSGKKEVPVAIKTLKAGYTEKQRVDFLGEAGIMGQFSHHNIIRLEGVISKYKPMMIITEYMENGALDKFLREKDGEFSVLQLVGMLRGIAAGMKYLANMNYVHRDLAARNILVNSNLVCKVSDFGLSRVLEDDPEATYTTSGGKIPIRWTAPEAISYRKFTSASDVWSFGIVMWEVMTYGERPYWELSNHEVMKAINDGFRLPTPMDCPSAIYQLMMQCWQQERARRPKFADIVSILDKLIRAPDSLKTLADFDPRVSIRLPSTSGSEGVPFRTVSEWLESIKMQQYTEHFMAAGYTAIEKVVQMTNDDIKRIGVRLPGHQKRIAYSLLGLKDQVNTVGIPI
T24 sequence (Q9BUB5 whole entry): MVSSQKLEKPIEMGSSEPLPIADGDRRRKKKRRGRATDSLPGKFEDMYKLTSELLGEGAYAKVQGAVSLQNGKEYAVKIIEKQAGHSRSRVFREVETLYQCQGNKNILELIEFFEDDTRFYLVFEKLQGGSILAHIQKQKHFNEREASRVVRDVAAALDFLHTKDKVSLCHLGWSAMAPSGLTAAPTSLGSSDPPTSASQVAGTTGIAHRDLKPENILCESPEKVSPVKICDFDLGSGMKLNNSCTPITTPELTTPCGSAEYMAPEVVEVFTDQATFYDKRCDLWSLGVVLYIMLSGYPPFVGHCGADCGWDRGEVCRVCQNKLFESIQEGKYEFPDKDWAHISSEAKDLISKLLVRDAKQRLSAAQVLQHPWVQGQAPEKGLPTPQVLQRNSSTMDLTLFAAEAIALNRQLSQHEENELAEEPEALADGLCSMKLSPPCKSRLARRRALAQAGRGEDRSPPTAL
T16 sequence (P49840 whole entry): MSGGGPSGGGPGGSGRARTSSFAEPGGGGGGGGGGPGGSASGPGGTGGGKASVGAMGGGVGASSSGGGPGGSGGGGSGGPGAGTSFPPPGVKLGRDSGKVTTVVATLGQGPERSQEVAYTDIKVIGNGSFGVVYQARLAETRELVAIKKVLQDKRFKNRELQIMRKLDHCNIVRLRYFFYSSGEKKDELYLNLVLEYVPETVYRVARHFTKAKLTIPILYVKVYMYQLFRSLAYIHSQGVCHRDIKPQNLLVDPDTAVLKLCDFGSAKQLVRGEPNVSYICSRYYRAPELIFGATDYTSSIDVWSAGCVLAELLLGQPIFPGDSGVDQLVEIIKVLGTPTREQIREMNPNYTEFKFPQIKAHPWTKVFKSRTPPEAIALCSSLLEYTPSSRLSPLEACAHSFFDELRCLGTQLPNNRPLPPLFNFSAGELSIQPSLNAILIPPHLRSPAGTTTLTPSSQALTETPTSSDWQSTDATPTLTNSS
T38 sequence (O15264 whole entry): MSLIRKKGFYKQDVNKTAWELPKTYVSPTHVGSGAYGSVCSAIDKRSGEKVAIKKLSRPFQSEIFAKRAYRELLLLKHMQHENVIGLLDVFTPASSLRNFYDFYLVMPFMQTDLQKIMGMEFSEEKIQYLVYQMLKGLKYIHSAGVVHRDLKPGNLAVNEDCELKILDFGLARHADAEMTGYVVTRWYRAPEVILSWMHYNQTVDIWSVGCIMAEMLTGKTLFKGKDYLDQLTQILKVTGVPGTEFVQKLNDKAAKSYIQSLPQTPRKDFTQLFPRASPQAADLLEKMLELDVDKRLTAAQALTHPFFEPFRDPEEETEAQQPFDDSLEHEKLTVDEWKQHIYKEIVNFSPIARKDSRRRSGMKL

## CCN1C(=O)N(c2c(F)c(OC)cc(OC)c2F)Cc2cnc3[nH]c(CN4CCOCC4)cc3c21 [INCB054828, pemigatinib]
AKT2
  inhibition at 0.1 µM: 2%
[1]
  inhibition at 0.1 µM: 7%
AMPK
  Average Percent Inhibition: 4%
Abl (Q252H)
  inhibition at 0.1 µM: 1%
AurB
  inhibition at 0.1 µM: 11%
AurC
  inhibition at 0.1 µM: -4%
BMX
  inhibition at 0.1 µM: 3%
CK1-epsilon
  inhibition at 0.1 µM: -1%
Ca MKII_beta
  inhibition at 0.1 µM: -9%
DAPK1
  inhibition at 0.1 µM: 1%
DCAMKL2
  inhibition at 0.1 µM: 3%
DYRK3
  inhibition at 0.1 µM: 0%
EGFR(T790M)
  inhibition at 0.1 µM: -1%
EPHA2
  inhibition at 0.1 µM: 3%
EPHA3
  inhibition at 0.1 µM: 0%
FLT1
  inhibition at 0.1 µM: 13%
FLT4
  inhibition at 0.1 µM: 38%
GSK3-alpha
  inhibition at 0.1 µM: 2%
HGK
  inhibition at 0.1 µM: -6%
HIPK1
  inhibition at 0.1 µM: -1%
KIT[T670I]
  inhibition at 0.1 µM: -2%
LYN
  inhibition at 0.1 µM: 14%
MAPKAPK3
  inhibition at 0.1 µM: 1%
MARK4
  inhibition at 0.1 µM: -4%
MET
  inhibition at 0.1 µM: -2%
MNK1 (MKNK1)
  inhibition at 0.1 µM: 6%
MSK1
  inhibition at 0.1 µM: 1%
MST1
  inhibition at 0.1 µM: -1%
NuaK1
  inhibition at 0.1 µM: -3%
PAK3
  inhibition at 0.1 µM: -2%
PIM2
  inhibition at 0.1 µM: -5%
PKC-delta
  inhibition at 0.1 µM: 9%
PKGa
  inhibition at 0.1 µM: 1%
PRAK
  inhibition at 0.1 µM: -2%
PRKX
  inhibition at 0.1 µM: 0%
ROCK1
  inhibition at 0.1 µM: -3%
ROCK2
  inhibition at 0.1 µM: 5%
Ret (V804L)
  inhibition at 0.1 µM: 0%
SGK2
  inhibition at 0.1 µM: -2%
SGK3
  inhibition at 0.1 µM: 13%
SRM (SRMS)
  inhibition at 0.1 µM: 1%
p38-delta
  inhibition at 0.1 µM: 2%
p70S6K
  inhibition at 0.1 µM: 8%
